Blank lines part the entries; values can stand above or below the molecule they belong to. Peptide text beside a SMILES is read from it. * marks the point of attachment. NOTA = O=C(O)CN1CCN(CC(=O)O)CCN(CC(=O)*)CC1; AEEEA = NCCOCCOCCOCC(=O)O
Assays:
[1] = Partition coefficient (log P), 1-octanol/PBS; assay type: physicochemical; settings: shake-flask 3 mL 1-octanol / 3 mL PBS pH 7.4, vortex 10 min, centrifugation 10,000 rpm 10 min, γ-counter, mean ± SD, n = 5
Experimental: The partition coefficients were assessed using the method described previously. [^68Ga]Ga-HN11-1 and [^68Ga]Ga-HN11-2 was respectively introduced into a mixture comprising 3 mL of 1-octanol and 3 mL of phosphate-buffered saline (PBS) with a pH of 7.4. Following vortexing for 10 minutes and subsequent centrifugation at 10,000 rpm for 10 minutes, samples were taken from both layers and counted using a γ-counter. The log P was determined using the formula: log P = log([M]oct/[M]aq). All measurements were conducted using 5 independent samples and are presented as mean ± standard deviation (SD).

[2] = In vitro stability in saline (radio-HPLC); assay type: physicochemical; settings: room temperature, over 4 h (0.5, 1, 2, 4 h), 3.74 MBq
Experimental: (§1) The in vitro stability of [^68Ga]Ga-HN11-1 and [^68Ga]Ga-HN11-2 (3.74 MBq) in saline and serum was tested by radio-HPLC analysis of its radiochemical purity after incubation at room temperature for 0.5 , 1 , 2 and 4 h.

[3] = In vitro stability in serum (radio-HPLC); assay type: in vitro ADME; settings: room temperature, over 4 h (0.5, 1, 2, 4 h), 3.74 MBq, read-out: in vitro stability in serum (radiochemical purity)
Experimental: as §1

A549-PD-L2 cell lines = assay: Cell uptake assay; assay type: cell-based; settings: A549-PD-L2 cells, n = 5; for cell uptake rate: mean ± SD
Experimental: Cell uptake assays were conducted to measure the uptake of [^68Ga]Ga-HN11-1 and [^68Ga]Ga-HN11-2 in A549 and A459-PD-L2 cell lines following incubation periods of 15, 30, 60, and 90 min. Blocking studies were performed by coincubating cells with an excess of precursor (HN11-1 / HN11-2), and then the cell uptakes of [^68Ga]Ga-HN11-1 and [^68Ga]Ga-HN11-2 were performed in A459-PD-L2 cell lines after 60 min of incubation. The experiment details are provided in the SI.
All tumor cells (1 × 10^6 per well) were seeded in two 24 - well plates, incubated for 24 h and then added with […] of [^68Ga]Ga-HN11-1 or [^68Ga]Ga-HN11-2 per well. After 15, 30, 60 and 90 min of uptake, the cells were separated from the medium, washed with 500 μL of cold PBS for three times and dissolved with 1 M NaOH. At different time points, these cells were collected and counted by using a γ-counter (WIZARD 2480, Pekin Elmer). For in vitro blocking experiments, cells were co-incubated with 10 μg of cold HN11-1 or HN11-2 precursor. After incubation, the cells were washed, collected and measured with a γ-counter, either. The IC50 values of [^68Ga]Ga-HN11-1 or [^68Ga]Ga-HN11-2 were determined using GraphPad Prism 8.0.2 software, respectively.

[4] = test system: A549-PD-L2 tumor xenograft models; assay: Dynamic micro-PET imaging in A549-PD-L2 xenografts; assay type: in vivo, BALB/C nude mice; settings: n = 3
Experimental: Micro-PET imaging was conducted using an Inveon PET scanner (Siemens, Germany). Dynamic PET examine were acquired over the first 60 min following the simultaneous injection of 7.4 to 9.25 MBq (200 to 250 μCi) of [^68Ga]Ga-HN11-1 and [^68Ga]Ga-HN11-2. After reconstructing the images and delineating the regions of interest (ROIs), time-radioactivity curves were plotted to obtain the Tumor/Muscle (T/M) ratios. %ID/g represents the percentage of the injected dose of the radiotracer that accumulates in a specific tissue per gram of tissue weight. For the biodistribution study, the xenograft models received an intravenous injection of 3.7 to 5.5 MBq (100 to 150 μCi) of [^68Ga]Ga-HN11-1. After the designated period (10, 30, 60, and 90 min), the mice were euthanized, and important tissues and organs were dissected and collected. The samples were counted using the γ-counter for determining the %ID/g, presented as mean ± standard deviation (SD).
A549 cell lines were provided by the China Center for Type Culture Collection (CCTCC) and cultured in RPMI-1640 medium supplemented with 10 % fetal bovine serum and 100 U/mL penicillin-streptomycin. The lentivirus system was implemented to introduce PD-L2 (PDCD1LG2) over-expressed cDNA into the A549 cells. The viral vectors were produced in 293T cells and co-transfected with the psAX2, pMD2G and PD-L2 plasmids. A549 cells transduced with the vectors were selectively grown in 1.6 μg/mL puromycin. Transfection efficiency was identified by WB and real-time quantitative PCR. All the cells were cultured in an incubator at 37° C with 5 % CO2 atmosphere. A549 and A549-PD-L2 cells (5 × 10^6, 200 μL)were subcutaneously implanted into the right shoulder of BALB/C nude mice (male, 4-6 weeks), respectively. When the tumors reached to 5 - 8 mm in diameter, the mice were subjected to in vivo and ex vivo studies. All the mice were purchased from the Laboratory Animal Center of Central South University.

[5] = test system: A549-PD-L2 xenograft models; assay: Static PET/CT imaging with blocking; assay type: in vivo, BALB/C nude mice; settings: 60 min, pretreatment i.v. with excess HN11-1 / HN11-2 (10 mg/kg), n = 3
Experimental: (§2) The static PET/CT imaging in A549 and A549-PD-L2 xenograft models after injection of 5.55 to 7.4 MBq (150 to 200 μCi) of [^68Ga]Ga-HN11-1 or [^68Ga]Ga-HN11-2 were acquired at 60 min. In the [^68Ga]Ga-HN11-1 + block or [^68Ga]Ga-HN11-2 + block groups, the xenograft models underwent pretreatment via intravenous injection of HN11-1 or HN-2 (10 mg/kg) before PET/CT imaging. Then, ROIs were delineated for each group. After imaging, tumor tissues from both the A549 and A459-PD-L2 xenograft tumors were extracted, and the PD-L2 expression was tested by IHC. For the pharmacokinetics study, healthy BALB/C mouse received an intravenous injection of 5.55 MBq (150 μCi) of [^68Ga]Ga-HN11-1 and [^68Ga]Ga-HN11-2. Measure the activity of blood samples (%ID/g, mean ± SD) at the corresponding time points, and the time-activity curve was plotted. Subsequently, pharmacokinetic parameters were tested using the noncompartmental model in Phoenix WinNonlin 8.1 software (Certara, USA).

[6] = Pharmacokinetics in blood; assay type: in vivo; settings: healthy BALB/C mouse, i.v. 5.55 MBq, noncompartmental model, Phoenix WinNonlin 8.1
Experimental: as §2

[7] = [^18F]F-FDG PET/CT imaging in cancer patients; assay type: in vivo, human
Experimental: The program content was explained to all healthy volunteers and cancer patients, and written informed consent was obtained. Whole-body dynamic imaging was conducted for 60 min using a PET/CT 690 Elite scanner (GE Discovery) immediately after intravenous injection of [^68Ga]Ga-HN11-1 (3.1 to 4.9 MBq/kg). A static body scan was performed 15 to 45 min after injection. All cancer patients underwent [^18F]F-FDG and [^68Ga]Ga-HN11-1 PET/CT imaging within 5 d. Two nuclear medicine physicians reconstructed and reviewed the images on GE aw 4.6 workstations and reached a consensus. They delineated the ROIs and measured the values of maximum standard uptake and average standard uptake (SUVmax and SUVmean). The biological distribution of [^68Ga]Ga-HN11-1 in healthy volunteers was determined by SUVmax and SUVmean. The OLINDA/EXM software (version 1.0, Hermes Medical Solutions AB) was used to estimate the human radiation dose based on the SUVmean of each organ.

[8] = Adult, PET/CT; cited from earlier work
From the text: The kidney received the highest doses (9.83 × 10^−2 ± 2.10 × 10^−2 mSv/MBq).

patients with NSCLC = assay: Clinical response to anti-PD-1 therapy in NSCLC patients; assay type: in vivo, human
From the text: We evaluated the clinical relevance between the expression of PD-L2 in tumor tissues and anti-PD-1 immunotherapy (pembrolizumab) in 49 patients with NSCLC, as assessed by PD-L2 IHC score data from these patients. The median age was 60 years (range, 41 to 86 y), male (81.6%). About 57.1% of the patients had distant metastasis (M1 stage), and 42.9% of the patients had received ≥2 other treatment before anti-PD-1 therapy (Table). […] patients were classified as PD-L1-positive expression, […] as PD-L2-positive expression, 21 (42.9%) as PD-L1 negative, and 27 (55.1%) as PD-L2 negative (Fig. 1A). […] (Fig. 1A). […] (Fig. 1A). In the 49 patients, PD-L2-positive was identified as a statistically significant predictor of better PFS (P < 0.05) (Fig. 1B), but it was not a statistically significant predictor of relapse-free survival (Fig. 1C).

- logD [1]: -0.27 ± 0.0018
- in vitro stability in saline (radiochemical purity) [2]: > 95%
- remaining at 4 h [3]: > 95%
- half-life in blood [6]: 22.66 min
Molecule: CC[C@H](C)[C@H](NC(=O)[C@H](CCCNC(=N)N)NC(=O)[C@H](C)NC(=O)[C@H](CCCCN)NC(=O)[C@@H](NC(=O)[C@H](CCCNC(=N)N)NC(=O)[C@H](CCCNC(=N)N)NC(=O)[C@@H](NC(=O)[C@H](Cc1c[nH]cn1)NC(=O)COCCOCCOCCNC(=O)CN1CCN(CC(=O)O)CCN(CC(=O)O)CC1)C(C)C)[C@@H](C)O)C(=O)N[C@@H](CCCNC(=N)N)C(=O)N[C@@H](CC(N)=O)C(=O)O [[^68Ga]Ga-HN11-2, metal not drawn] ({NOTA-AEEEA}-HVRRTKARIRN-OH)
- cell uptake rate (A549-PD-L2 cell lines; 30 min incubation, γ-counter): 1.55 ± 0.08%
- cell uptake, block group (A549-PD-L2 cell lines; 60 min, with excess (10 μg) of cold HN11-1 / HN11-2 precursor): 0.61 ± 0.03%
- cell uptake rate (A549-PD-L2 cell lines; 60 min incubation): 2.47 ± 0.13%
- tumor uptake ([4]; 10 min after injection): 1.71 ± 0.14 %ID/g
- tumor uptake ([4]; 20 min after injection): 2.17 ± 0.12 %ID/g
- tumor uptake ([4]; 30 min after injection): 2.29 ± 0.17 %ID/g
- tumor uptake ([4]; 40 min after injection): 2.10 ± 0.03 %ID/g
- tumor uptake ([4]; 50 min after injection): 1.97 ± 0.07 %ID/g
- tumor uptake ([4]; 60 min after injection): 1.82 ± 0.06 %ID/g
- tumor uptake after blocking [5]: 0.82 ± 0.04 %ID/g

Molecule: OC[C@H]1O[C@@H](O)[C@H]([18F])[C@@H](O)[C@@H]1O [[^18F]F-FDG]
- FDG SUVmax ([7]; patient 1, NSCLC, lung): 15.5
- FDG SUVmax ([7]; patient 2, NSCLC, lung): 25.9
- FDG SUVmax ([7]; patient 3, rHNSCC, buccal): 13.7
- FDG SUVmax ([7]; patient 4, rHNSCC, buccal): 4.0
- FDG SUVmax ([7]; patient 5, mHNSCC, tongue): 4.0
- FDG SUVmax ([7]; patient 6, mHNSCC, laryngeal): 3.7
- effective dose [8]: 1.9 × 10^−2 mSv/MBq

Molecule: pembrolizumab: anti-PD-1 immunotherapy
- response rate (patients with NSCLC; PD-L1-positive alone, 95% CI 63.4 to 93.8): 78.6%
- objective response rate (patients with NSCLC; PD-L1-positive but PD-L2-negative, 95% CI 56.3 to 96.6): 76.5%
- objective response rate (patients with NSCLC; PD-L1-positive while PD-L2 unknown, 95% CI 63.4 to 93.8): 78.6%
- response rate (patients with NSCLC; PD-L2-positive alone, 95% CI 59.8 to 94.8): 77.3%
- objective response rate (patients with NSCLC; both PD-L1- and PD-L2-positive, 95% CI 59.0 to 100.0): 81.8%
- response rate (patients with NSCLC; both PD-L1 and PD-L2 negative group, 95% CI 29.6 to 90.4): 60.0%
